Reference: patent US20210308319A1, “TRANSITION TO TRANSLUCENT SUTURES” (University of Pittsburgh - Of the Commonwealth System of …, priority 2018, published 2021)

Experiment: UV-Vis spectroscopy of the rate of dissolution of dyes in water
Type: physicochemical
Details: excess dye in cuvette, 320-800 nm, 0 to 10 minutes
Experimental: An excess mass of both crystal violet and violet stearate was added to separate, clean polystyrene cuvettes. The spectrometer was calibrated to measure absorbance over the range of 320-800 nm. A background UV-Vis spectrum was then collected using a clean cuvette filled with distilled water (this spectrum is later subtracted from the dye solution spectrums to give the absorbance resulting from the dye only). The dye containing cuvettes were then loaded into the UV-Vis spectrometer. Water was then carefully syringed down the side of the first cuvette until the cuvettes were filled, and the spectrum immediately collected upon addition. […] The 20 minutes spectra are not included due to the fact they are very similar to the 10 minute spectra for both dyes tested.

SMILES	Change of UV-Vis absorbance spectra over time after addition of water (rate of dissolution)
CN(C)c1ccc(C(=C2C=CC(=[N+](C)C)C=C2)c2ccc(N(C)C)cc2)cc1 [Crystal Violet, crystal violet]	do not change over time at all
CCCCCCCCCCCCCCCCCC(=O)[O-].CN(C)c1ccc(C(=C2C=CC(=[N+](C)C)C=C2)c2ccc(N(C)C)cc2)cc1 [Violet Stearate]	definite increase in absorbance over time
